Assays:
Format in all cases: in vivo
[1] = test system: field corn (Zea mays L., var. Dekalb 535, CORN); assay: Pre-emerge test, crop safety; details: pre-emerge, 14 days after application, scale 0-100
In short: (§1)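 Compounds in acetone were track-sprayed at 187 l/ha, 15–1000 g ai/ha, onto sandy loam pots. Pre-emerge seeds were sown one day before spraying, with surface watering afterwards. Post-emerge plants were at the 2–3 leaf stage and sprayed with 0.25% v/v non-ionic surfactant. Injury was rated 0–100 at 14 days.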

[2] = test system: upland rice (Oryza sp., var. Tebonnet, RICE); assay: Pre-emerge test, crop safety; details: pre-emerge, 14 days after application, scale 0-100
In short: as §1

[3] = test system: barnyardgrass (Echinochloa crus-galli, ECHCG); assay: Post-emerge test, greenhouse herbicide activity screening; details: post-emerge, 14 days after application, rating scale 0-100
In short: (§2)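 Fourteen days after spraying, crop and weed injury was graded visually from 0, no effect, to 100, every plant dead. Test substances were dissolved in acetone and applied at 15–1000 g ai/ha with a flat-fan nozzle. Application was either pre-emergence, one day after sowing, or post-emergence at the 2–3 leaf stage.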

[4] = test system: johnsongrass (Sorghum halepense, SORHA); assay: as above; details: post-emerge, 63 g ai/ha, 14 days after application, rating scale 0-100
In short: as §2

[5] = test system: redroot pigweed (Amaranthus retroflexus, AMARE); assay: as above; details: post-emerge, 14 days after application, rating scale 0-100
In short: as §2

[6] = test system: green foxtail (Setaria viridis, SETVI); assay: as above; details: post-emerge, 14 days after application, rating scale 0-100
In short: as §2

[7] = test system: ivyleaf morningglory (Ipomoea hederacea, IPOHE); assay: as above; details: post-emerge, 14 days after application, rating scale 0-100
In short: as §2

[8] = test system: velvetleaf (Abutilon theophrasti, ABUTH); assay: as above; details: post-emerge, 14 days after application, rating scale 0-100
In short: as §2

[9] = test system: large crabgrass (Digitaria sanguinalis, DIGSA); assay: as above; details: post-emerge, 14 days after application, rating scale 0-100
In short: as §2

[10] = test system: sicklepod (Cassia obtusifolia, CASOB); assay: as above; details: post-emerge, 14 days after application, rating scale 0-100
In short: as §2

[11] = test system: lambsquarters (Chenopodium album, CHEAL); assay: as above; details: post-emerge, 14 days after application, rating scale 0-100
In short: as §2

[12] = test system: field corn (Zea mays L., var. Dekalb 535, CORN); assay: Post-emerge test, crop safety; details: post-emerge, 14 days after application, rating scale 0-100
In short: as §1

[13] = test system: upland rice (Oryza sp., var. Tebonnet, RICE); assay: Post-emerge test, crop safety; details: post-emerge, 14 days after application, rating scale 0-100
In short: as §1

[14] = test system: redroot pigweed (Amaranthus retroflexus, AMARE); assay: Pre-emerge test, greenhouse herbicide activity screening; details: pre-emerge, 14 days after application, scale 0-100
In short: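 Herbicidal damage is scored 0 (none) to 100 (complete plant death) two weeks after a simulated field spray. Rates span 15–1000 g ai/ha, delivered in acetone at 187 l/ha. For post-emergence treatments, plants have 2–3 leaves and the spray carries 0.25% v/v non-ionic surfactant.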

[15] = test system: barnyardgrass (Echinochloa crus-galli, ECHCG); assay: as above; details: pre-emerge, 14 days after application, scale 0-100
In short: as §1

[16] = test system: johnsongrass (Sorghum halepense, SORHA); assay: as above; details: pre-emerge, 14 days after application, scale 0-100
In short: as §1

[17] = test system: green foxtail (Setaria viridis, SETVI); assay: as above; details: pre-emerge, 14 days after application, scale 0-100
In short: as §1

[18] = test system: ivyleaf morningglory (Ipomoea hederacea, IPOHE); assay: as above; details: pre-emerge, 14 days after application, scale 0-100
In short: as §1

[19] = test system: velvetleaf (Abutilon theophrasti, ABUTH); assay: as above; details: pre-emerge, 14 days after application, scale 0-100
In short: as §1

[20] = test system: large crabgrass (Digitaria sanguinalis, DIGSA); assay: as above; details: pre-emerge, 14 days after application, scale 0-100
In short: as §1

[21] = test system: sicklepod (Cassia obtusifolia, CASOB); assay: as above; details: pre-emerge, 14 days after application, scale 0-100
In short: as §1

[22] = test system: lambsquarters (Chenopodium album, CHEAL); assay: as above; details: pre-emerge, 14 days after application, scale 0-100
In short: as §1

COc1c(C#N)cc(F)c(-n2c(=O)cc(C(F)(F)F)n(C)c2=O)c1NC(=O)C=Cc1ccccc1 [2-179]
80: IPOHE phytotoxicity rating ([7]; 63 g ai/ha) | CASOB phytotoxicity rating ([10]; 63 g ai/ha) | CHEAL phytotoxicity rating ([11]; 63 g ai/ha)
95: phytotoxicity rating SORHA ([16]; 250 g ai/ha) | phytotoxicity rating DIGSA ([20]; 250 g ai/ha)
70: ECHCG phytotoxicity rating ([3]; 63 g ai/ha) | phytotoxicity rating IPOHE ([18]; 250 g ai/ha)
10: phytotoxicity rating CORN (crop damage) ([1]; 250 g ai/ha) | SORHA phytotoxicity rating [4]
0: phytotoxicity rating CORN (crop damage) ([1]; 63 g ai/ha) | DIGSA phytotoxicity rating ([9]; 63 g ai/ha)
50: ECHCG phytotoxicity rating ([3]; 250 g ai/ha) | DIGSA phytotoxicity rating ([9]; 250 g ai/ha) | phytotoxicity rating SETVI ([17]; 63 g ai/ha)
20: phytotoxicity rating RICE (crop damage) ([2]; 63 g ai/ha) | phytotoxicity rating ECHCG ([15]; 63 g ai/ha) | phytotoxicity rating DIGSA ([20]; 63 g ai/ha)
30: SETVI phytotoxicity rating ([6]; 63 g ai/ha) | RICE phytotoxicity rating (crop damage) ([13]; 63 g ai/ha) | phytotoxicity rating SORHA ([16]; 63 g ai/ha) | phytotoxicity rating CASOB ([21]; 63 g ai/ha)
55: SETVI phytotoxicity rating ([6]; 250 g ai/ha)
90: phytotoxicity rating SETVI ([17]; 250 g ai/ha)
85: phytotoxicity rating ECHCG ([15]; 250 g ai/ha)
15: CORN phytotoxicity rating (crop damage) ([12]; 63 g ai/ha) | CORN phytotoxicity rating (crop damage) ([12]; 250 g ai/ha)
100: AMARE phytotoxicity rating ([5]; 63 g ai/ha) | AMARE phytotoxicity rating ([5]; 250 g ai/ha) | IPOHE phytotoxicity rating ([7]; 250 g ai/ha) | ABUTH phytotoxicity rating ([8]; 63 g ai/ha) | ABUTH phytotoxicity rating ([8]; 250 g ai/ha) | CASOB phytotoxicity rating ([10]; 250 g ai/ha) | CHEAL phytotoxicity rating ([11]; 250 g ai/ha) | phytotoxicity rating AMARE ([14]; 63 g ai/ha) | phytotoxicity rating AMARE ([14]; 250 g ai/ha) | phytotoxicity rating ABUTH ([19]; 63 g ai/ha) | phytotoxicity rating ABUTH ([19]; 250 g ai/ha) | phytotoxicity rating CASOB ([21]; 250 g ai/ha) | phytotoxicity rating CHEAL ([22]; 63 g ai/ha) | phytotoxicity rating CHEAL ([22]; 250 g ai/ha)
60: phytotoxicity rating RICE (crop damage) ([2]; 250 g ai/ha) | RICE phytotoxicity rating (crop damage) ([13]; 250 g ai/ha) | phytotoxicity rating IPOHE ([18]; 63 g ai/ha)

— patent US6355799B1, “Substituted benzene compounds, process for their preparation, and herbicidal and defoliant compositions containing them” (ISK Americas Incorporated, priority 1997, dated 2002)
